Results taken from patent US10100061B2, “Oxazepine compound and agricultural/horticultural insecticide containing said compound as active ingredient, and method for using the same” (NIHON NOHYAKU CO., LTD., priority 2014, dated 2018).

Experiments:
[1] = system: Small Brown Planthopper (Laodelphax Striatellus); experiment: Test of insecticidal efficacy against small brown planthopper (Test Example 2); format: in vivo; details: 500 ppm, rice plants soaked 30 seconds, third-instar larvae, eight days after inoculation; criteria same as in Test Example 1
Description: Test of Insecticidal Efficacy Against Small Brown Planthopper (Laodelphax Striatellus)

[2] = system: Green Peach Aphid (Myzus Persicae); experiment: Test of preventive value against green peach aphid (Test Example 1); format: in vivo; details: 500 ppm, sprayed over stems and leaves of potted Chinese cabbages, sixth day after spraying
Method: Test of Preventive Value Against Green Peach Aphid (Myzus Persicae)
Chinese cabbages were planted in plastic pots, each with a size of 8 cm in diameter and 8 cm in height, after which green peach aphids were propagated and the number of parasitic insects was examined in each pot. An oxazepine compound or salt thereof expressed by General Formula (I) according to the present invention was dispersed in water and the dispersion was diluted to 500 ppm in the form of a reagent, after which the reagent was sprayed over stems and leaves of potted Chinese cabbages and let dry under wind, and the pots were kept in a greenhouse, and on the sixth day after the reagent was sprayed, the number of green peach aphids living parasitically on each Chinese cabbage was examined and the preventive value was calculated based on the formula below, and judgment was made according to the criteria below. Preventive value=100−{(T×Ca)/(Ta×C)}×100 [Mathematical Formula 1] • Ta: Number of parasitic insects inside the treatment area before spraying • T: Number of parasitic insects inside the treatment area after spraying • Ca: Number of parasitic insects inside the non-treatment area before spraying • C: Number of parasitic insects inside the non-treatment area after spraying Judgment Criteria • A - - - Preventive value: 100% • B - - - Preventive value: 99%˜90% • C - - - Preventive value: 89%˜80% • D - - - Preventive value: 79%˜50%

Structure (SMILES) | Corrected insect mortality, judgment [1] | Preventive value, judgment [2]
CCOCN1C(=O)c2nn(-c3cccnc3)cc2Oc2ccc(F)cc21 [8-46] | A to D | A to D
O=C1Nc2ccccc2Oc2cn(-c3cccnc3)nc21 [Compound No. 1-1, 2-(pyridine-3-yl)-2H-benzo [b]pyrazolo [3,4-f][1,4]oxazepine-10 (9H)-one] | A to D | A to D
CC(C(=O)OC(C)(C)C)N1C(=O)c2nn(-c3cccnc3)cc2Oc2cc(F)ccc21 (stereo not drawn) [8-32] | A to D | A to D
O=CN1C(=O)c2nn(-c3cccnc3)cc2Oc2ccccc21 [8-12] | A to D | A to D
Fc1ccc2c(c1)NCc1nn(-c3cccnc3)cc1O2 [Compound No. 3-6, 7-fluoro-2-(pyridine-3-yl)-9,10-dihydro-2H-benzo [b]pyrazolo [3,4-f][1,4]oxazepine] | A to D | A to D
O=C1c2nn(-c3cccnc3)cc2Oc2ccccc2N1Cc1ccccn1 [1-57] | A to D | A to D
C=CCN1C(=O)c2nn(-c3cccnc3)cc2Oc2ccc(F)cc21 [8-35] | A to D | A to D
C#CCN1C(=O)c2nn(-c3cccnc3)cc2Oc2cc(Cl)ccc21 [1-28] | A to D | A to D
CN1C(=O)c2nn(-c3cccnc3)cc2Oc2ccc(F)cc21 [1-15] | A to D | A to D
O=C1c2nn(-c3cccnc3)cc2Oc2ccc(F)cc2N1CC1CCCO1 (stereo not drawn) [8-41] | A to D | A to D
O=C1Nc2ccc(Cl)cc2Oc2cn(-c3cccnc3)nc21 [1-26] | A to D | A to D
CN1C(=O)c2nn(-c3ccc[n+]([O-])c3)cc2Oc2ccccc21 [9-1] | A to D | A to D
CN1C(=O)c2nn(-c3cncc(F)c3)cc2Oc2cc(F)ccc21 [1-80] | A to D | A to D
CC(C)(C)OC(=O)CN1C(=O)c2nn(-c3cccnc3)cc2Oc2ccccc21 [1-75] | A to D | A to D
c1cncc(-n2cc3c(n2)C(NC2CC2)=Nc2ccccc2O3)c1 [11-7] | A to D | A to D
CN1C(=O)c2nn(-c3cccnc3)cc2Oc2cccc(F)c21 [1-19] | A to D | A to D
CCCCCCN1C(=O)c2nn(-c3cccnc3)cc2Oc2ccccc21 [1-52] | A to D | A to D
O=C1OCCC1N1C(=O)c2nn(-c3cccnc3)cc2Oc2cc(F)ccc21 (stereo not drawn) [8-31] | A to D | A to D
O=C1Nc2cccc(F)c2Oc2cn(-c3cccnc3)nc21 [1-6] | A to D | A to D
CC(=O)N1C(=O)c2nn(-c3cccnc3)cc2Oc2ccccc21 [1-73] | A to D | A to D
C=CCN1C(=O)c2nn(-c3cccnc3)cc2Oc2ccccc21 [1-55] | A to D | A to D
C#CCN1C(=O)c2nn(-c3cccnc3)cc2Oc2cc(C)ccc21 [1-32] | A to D | A to D
C#CCN1C(=O)c2nn(-c3cccnc3)cc2Oc2c(F)cccc21 [1-8] | A to D | A to D
O=C1Nc2cc(Br)ccc2Oc2cn(-c3cccnc3)nc21 [8-62] | A to D | A to D
CN1C(=O)c2nn(-c3cccnc3)cc2Oc2c(F)cccc21 [1-7] | A to D | A to D
O=C1Nc2cc(C(F)(F)F)ccc2Oc2cn(-c3cccnc3)nc21 [1-37] | A to D | A to D

Structure (SMILES) | Corrected insect mortality, judgment [1] | Preventive value, judgment [2]
CN1C(=O)c2nn(-c3cccnc3)cc2Oc2cnccc21 [5-2] | A to D | A to D
CSCN1C(=O)c2nn(-c3cccnc3)cc2Oc2ccccc21 [8-2] | A to D | A to D
COCN1C(=O)c2nn(-c3cccnc3)cc2Oc2ccccc21 [1-67] | A to D | A to D
C#CCN1C(=O)c2nn(-c3cccnc3)cc2Oc2cc(F)ccc21 [1-12] | A to D | A to D
CN1C=COc2cn(-c3cccnc3)nc2C1=O [7-2] | A to D | A to D
CSC1=Nc2cc(F)ccc2Oc2cn(-c3cccnc3)nc21 [11-18] | A to D | A to D
CN1C(=O)c2nn(-c3cccnc3)cc2Oc2c(Cl)cccc21 [1-23] | A to D | A to D
N#CCN1C(=O)c2nn(-c3cccnc3)cc2Oc2ccccc21 [1-4] | A to D | A to D
COc1ccc(CN2C(=O)c3nn(-c4cccnc4)cc3Oc3ccccc32)cc1 [1-56] | A to D | A to D
N#CCN1C(=O)c2nn(-c3cccnc3)cc2Oc2cc(F)ccc21 [Compound No. 1-13, 2-(6-fluoro-10-oxo-2-(pyridine-3-yl)-2H-benzo [b]pyrazolo [3,4-f][1,4]oxazepine-9 (10H)-yl) acetonitrile] | A to D | A to D
c1cncc(-n2cc3c(n2)CNc2ccccc2O3)c1 [3-1] | A to D | A to D
CCCCN1C(=O)c2nn(-c3cccnc3)cc2Oc2ccccc21 [1-51] | A to D | A to D
COC(=O)CN1C(=O)c2nn(-c3cccnc3)cc2Oc2ccccc21 [1-74] | A to D | A to D
CCSC1=Nc2cc(F)ccc2Oc2cn(-c3cccnc3)nc21 [11-19] | A to D | A to D
C#CCN1C(=O)c2nn(-c3cccnc3)cc2Oc2ccc(Cl)cc21 [8-56] | A to D | A to D
O=C1c2nn(-c3cccnc3)cc2Oc2ccccc2N1CC(F)(F)F [1-5] | A to D | A to D
O=C1c2nn(-c3cccnc3)cc2Oc2cc(F)ccc2N1CCCCBr [8-34] | A to D | A to D
Fc1ccc2c(c1)NC(=S)c1nn(-c3cccnc3)cc1O2 [2-5] | A to D | A to D
COCN1C(=O)c2nn(-c3cccnc3)cc2Oc2ccc(F)cc21 [8-45] | A to D | A to D
CN1C(=O)c2nn(-c3cccnc3)cc2Oc2cc(Cl)ccc21 [1-27] | A to D | A to D
COC(CN1C(=O)c2nn(-c3cccnc3)cc2Oc2ccccc21)OC [8-10] | A to D | A to D
C#CCN1C(=O)c2nn(-c3cccnc3)cc2Oc2cc(OC)ccc21 [1-41] | A to D | A to D
CN(C)c1ccc2c(c1)N(C)C(=O)c1nn(-c3cccnc3)cc1O2 [1-46] | A to D | A to D
CN1C(=O)c2nn(-c3cccnc3)cc2Oc2cc(C(F)(F)F)ccc21 [1-34] | A to D | A to D
N#CCN1C(=O)c2nn(-c3cccnc3)cc2Oc2c(F)cccc21 [1-9] | A to D | A to D
